The source of these data is paper PMC3267017, “Design, synthesis and in vitro evaluation of novel bivalent S-adenosylmethionine analogues” (Bioorganic & Medicinal Chemistry Letters, 2012).

Structures can show the parent of a compound that is named as a salt. Where two headings read alike, the source gives them in different places.

The target of this experiment is MetJ dimer–DNA complex (F-metC) (Escherichia coli, UniProt P0A8U6). Kind of experiment: Fluorescence anisotropy assay: MetJ titrated into F-metC DNA and ligand, MetJ dimer–DNA complex formation. The format is binding. The following applies: for Fold-improvement over monovalent control 4: ligands 2 mM; for EC50: F-metC 10 nM, read-out: EC50, concentration of MetJ monomer required to promote half-maximal formation of its complex with the F-metC DNA; for Fold-improvement over monovalent control 11: unquaternised bivalent ligand 1 mM vs 11 at 2 mM. The text has this:
A fluorescence anisotropy-based binding assay was used to compare the relative ability of SAM analogues to promote MetJ dimer–DNA complex formation. Since SAM has low affinity for MetJ in the absence of DNA,[8,13] measurements were made in the presence of the DNA fragment F-metC, a fluorescently-labeled analogue of the shortest naturally occurring operator sequence, metC.[14] Titration of MetJ into a solution containing fixed concentrations of F-metC and ligand allows the change in anisotropy related to ternary complex formation to be measured (Fig. 5).
Figure 5 Cartoon illustrating the fluorescence anisotropy assay. The SAM molecules promote the formation of a SAM–F-metC–protein complex, with two MetJ dimers bound to the 18 base-pair DNA duplex.
The half-maximal concentration of MetJ, EC50, required to promote complex formation was determined for each ligand. […] The monovalent ligands 11 and 12 (2 mM) and the bivalent ligands 9 and 10 (1 mM) all promoted the formation of the MetJ–DNA complex (Table 1). […] The unquaternised bivalent ligands 9a–e (1 mM) promoted complex formation up to about threefold more effectively than the corresponding monovalent analogue 11. Similarly, the quaternised bivalent ligands 10a and 10b promoted, respectively, complex formation 2.4- and 3.6-fold more effectively than the quaternised monovalent analogue 12.
Analysis of novel SAM analogues binding to MetJ in the presence of operator DNA was carried out using fluorescence anisotropy. Fluorescence anisotropy experiments were performed on a Spex Fluorolog Tau spectrofluorometer (HORIBA Jobin Yvon) controlled by Datamax software. The excitation and emission wavelengths were set to 488 nm and 517 nm respectively. Slit widths were set to 5 nm and all experiments were carried out at 19 °C. The detector integration time was 5 seconds and three readings were taken of each sample to obtain an average anisotropy. Free anisotropy values were 0.051-0.060. Increase in fluorescence anisotropy was observed upon titration of MetJ into a solution of F-metC (10 nM) with and without ligand ([…]) in TK buffer pH 7.6 (50 mM Trizma hydrochloride pH 7.6, 100 mM KCl) with a total starting volume of 200 µL. […] The final DMSO concentration was 2% or less. After each addition, the sample was mixed with a pipette and left to equilibrate for five minutes before the fluorescence anisotropy readings were acquired. The intensity of linear and perpendicular light, compared to the excitation light is measured experimentally and the anisotropy was calculated using the following equation:‖
The data was fitted to a sigmoidal growth logistic model using the following equation: […]
Where A1 refers to the initial value, A2 refers to the final value, x0 refers to the centre and p is a value relating to the slope of the transition. Errors refer the standard deviation of three titration repeats. An arbitrary weighting function with the following equation was employed: […]
On the technique in general: Polarisation of emitted light reports the rotation of a fluorescent probe.

Where [1] appears, read: unquaternised ligands 2 mM, average of three titrations.
The mark [2] stands for this setting: quaternised ligands 2 mM, average of three titrations.
[3] abbreviates: bivalent ligand 1 mM, DMSO 2%, average of three titrations.
Setting [4] is: monovalent ligand 2 mM, DMSO 2%, average of three titrations.

Chain of MetJ dimer–DNA complex (F-metC) (P0A8U6 2-105, one chain of several): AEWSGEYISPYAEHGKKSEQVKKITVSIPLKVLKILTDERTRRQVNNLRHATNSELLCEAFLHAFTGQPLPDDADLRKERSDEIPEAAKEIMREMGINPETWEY

In the case of `CN(CCCC(=O)NCCCNC(=O)CCCN(C)C[C@H]1O[C@@H](n2cnc3c(N)ncnc32)[C@H](O)[C@@H]1O)C[C@H]1O[C@@H](n2cnc3c(N)ncnc32)[C@H](O)[C@@H]1O` [Compound 18b, N,N′-Di-[5′-deoxy-5′-N-methyl-N′-(4-butyryl)]-1,3-diaminopropane], the “Fold-improvement over monovalent control 4” value is 3.1-fold. For the same compound, the EC50 under setting [1] came out at 320 ± 40 nM. For `C[S+](CC[C@H](N)C(=O)[O-])C[C@H]1O[C@@H](n2cnc3c(N)ncnc32)[C@H](O)[C@@H]1O` (stereo partly shown) [SAM, 1, S-Adenosylmethionine], the EC50 (SAM, ligand concentration not given, DMSO 2%) worked out at 17.3 ± 0.3 nM. As for `C[N+](C)(CCCC(=O)NCCCNC(=O)CCC[N+](C)(C)C[C@H]1O[C@@H](n2cnc3c(N)ncnc32)[C@H](O)[C@@H]1O)C[C@H]1O[C@@H](n2cnc3c(N)ncnc32)[C@H](O)[C@@H]1O.[I-].[I-]` [Compound 19b, N,N′-Dimethyl-N,N′-di-[5′-deoxy-5′-N-methyl-N′-(4-butyryl)-adenosine]-1,3-diaminopropane diiodide], where the note is “quaternised ligands 2 mM”, the “Fold-improvement over monovalent control 5” value was 1.4-fold. Also, the EC50 under setting [2] came out at 108 ± 3 nM. As to `CN(CC[C@H](N)C(=O)NCc1ccccc1-c1ccccc1CNC(=O)[C@@H](N)CCN(C)C[C@H]1O[C@@H](n2cnc3c(N)ncnc32)[C@H](O)[C@@H]1O)C[C@H]1O[C@@H](n2cnc3c(N)ncnc32)[C@H](O)[C@@H]1O` [Compound 9c, N,N′-(Biphenyl-2,2′-diylybismethylene)bis{(2′′S)-2′′-amino-4′′-[5′′′-deoxy-5′′′-(methylamino)-adenosyl]butanamide}], the “Fold-improvement over monovalent control 11” value is listed as 3.1-fold. Under setting [3], the EC50 was determined as 39 ± 1 nM. Take `C[N+](C)(CC[C@H](N)C(=O)NCc1ccc(CNC(=O)[C@@H](N)CC[N+](C)(C)C[C@H]2O[C@@H](n3cnc4c(N)ncnc43)[C@H](O)[C@@H]2O)cc1)C[C@H]1O[C@@H](n2cnc3c(N)ncnc32)[C@H](O)[C@@H]1O` [Compound 10a, N,N′-(1,4-Phenylenebismethylene)bis{(2′S)-2′-amino-4′-[5′′-deoxy-5′′-(dimethylamino)-adenosyl]butanamide}iodide tetratrifluoroacetic acid salt]: under setting [3], the EC50 was 15 ± 5 nM. Regarding `CCCNC(=O)CCC[N+](C)(C)C[C@H]1O[C@@H](n2cnc3c(N)ncnc32)[C@H](O)[C@@H]1O` [Compound 5, reference compound], under setting [2], the EC50 is 150 ± 10 nM. Regarding `CN(CCCC(=O)NCCCCNC(=O)CCCN(C)C[C@H]1O[C@@H](n2cnc3c(N)ncnc32)[C@H](O)[C@@H]1O)C[C@H]1O[C@@H](n2cnc3c(N)ncnc32)[C@H](O)[C@@H]1O` [Compound 18c, N,N′-Di-[5′-deoxy-5′-N-methyl-N′-(4-butyryl)-adenosine]-1,4-diaminobutane], the “Fold-improvement over monovalent control 4” value is listed as 4.5-fold. Also, the EC50 under setting [1] stood at 220 ± 20 nM. On to `CN(CC[C@H](N)C(=O)NCc1ccc(CNC(=O)[C@@H](N)CCN(C)C[C@H]2O[C@@H](n3cnc4c(N)ncnc43)[C@H](O)[C@@H]2O)cc1)C[C@H]1O[C@@H](n2cnc3c(N)ncnc32)[C@H](O)[C@@H]1O` [Compound 9a, N,N′-(1,4-Phenylenebismethylene)bis{(2′S)-2′-amino-4′-[5′′-deoxy-5′′-(methylamino)-adenosyl]butanamide}], for which the “Fold-improvement over monovalent control 11” value was 2.0-fold. Under setting [3], the EC50 was found to be 61 ± 3 nM. The like results for `CN(CC[C@H](N)C(=O)NCc1cccc(CNC(=O)[C@@H](N)CCN(C)C[C@H]2O[C@@H](n3cnc4c(N)ncnc43)[C@H](O)[C@@H]2O)c1)C[C@H]1O[C@@H](n2cnc3c(N)ncnc32)[C@H](O)[C@@H]1O` [Compound 9b, N,N′-(1,3-Phenylenebismethylene)bis{(2′S)-2′-amino-4′-[5′′-deoxy-5′′-(methylamino)-adenosyl]butanamide}] were, in that order, 3.2-fold and 37 ± 2 nM. In the case of `CN(CC[C@H](N)C(=O)NCc1ccccc1)C[C@H]1O[C@@H](n2cnc3c(N)ncnc32)[C@H](O)[C@@H]1O` [Compound 11, 5′-[{(3′′S)-4′′-Benzylamino-3′′-amino-4′′-oxobutyl}methylamino]-5′-deoxyadenosine], the EC50 under setting [4] was 120 ± 10 nM. Take `C[N+](C)(CC[C@H](N)C(=O)NCc1cccc(CNC(=O)[C@@H](N)CC[N+](C)(C)C[C@H]2O[C@@H](n3cnc4c(N)ncnc43)[C@H](O)[C@@H]2O)c1)C[C@H]1O[C@@H](n2cnc3c(N)ncnc32)[C@H](O)[C@@H]1O` [Compound 10b, N,N′-(1,3-Phenylenebismethylene)bis{(2′S)-2′-amino-4′-[5′′-deoxy-5′′-(dimethylamino)-adenosyl]butanamide}iodide tetratrifluoroacetic acid salt]: the EC50 under setting [3] stood at 10 ± 1 nM. Consider `C[N+](C)(CC[C@H](N)C(=O)NCc1ccccc1)C[C@H]1O[C@@H](n2cnc3c(N)ncnc32)[C@H](O)[C@@H]1O` [Compound 12, 5′-[{(3′′S)-4′′-Benzylamino-3′′-amino-4′′-oxobutyl}dimethylamino]-5′-deoxyadenosine iodide ditrifluoroacetic acid salt], for which the EC50 under setting [4] was found to be 36 ± 6 nM. As to `CN(CCCC(=O)NCCCCCCNC(=O)CCCN(C)C[C@H]1O[C@@H](n2cnc3c(N)ncnc32)[C@H](O)[C@@H]1O)C[C@H]1O[C@@H](n2cnc3c(N)ncnc32)[C@H](O)[C@@H]1O` [Compound 18d, N,N′-Di-[5′-deoxy-5′-N-methyl-N′-(4-butyryl)-adenosine]-1,6-diaminohexane], under setting [1], the EC50 was 47 ± 1 nM.

Regarding `C[N+](C)(CCCC(=O)NCCCCn1nnc2c1CCCCCC2OCCNC(=O)CCC[N+](C)(C)C[C@H]1O[C@@H](n2cnc3c(N)ncnc32)[C@H](O)[C@@H]1O)C[C@H]1O[C@@H](n2cnc3c(N)ncnc32)[C@H](O)[C@@H]1O.[I-].[I-]` (stereo partly shown) [Compound 16b, 4-((Adenosyl)(dimethyl)amino)-N-(2-(1-(4-(4-((adenosyl) (dimethyl)amino)butanamido)butyl)-4,5,6,7,8,9-hexahydro-1H-cycloocta[d][1,2,3]triazol-4-yloxy)ethyl)butanamide diiodide and 4-(-((adenosyl)(dimethyl)amino)-N-(2-(1-(4-(4-(-((adenosyl)(dimethyl)amino)butanamido)butyl)-4,5,6,7,8,9-hexahydro-1H-cycloocta[d][1,2,3]triazol-9-yloxy)ethyl)butanamidediiodide], where the note is “quaternised ligands 2 mM”, the “Fold-improvement over monovalent control 5” value is on record as 3.6-fold. The EC50 under setting [2] turned out to be 42 ± 3 nM. With `CN(CC[C@H](N)C(=O)NCc1cccc(-c2cccc(CNC(=O)[C@@H](N)CCN(C)C[C@H]3O[C@@H](n4cnc5c(N)ncnc54)[C@H](O)[C@@H]3O)c2)c1)C[C@H]1O[C@@H](n2cnc3c(N)ncnc32)[C@H](O)[C@@H]1O` [Compound 9d, N,N′-(Biphenyl-3,3′-diylybismethylene)bis{(2′′S)-2′′-amino-4′′-[5′′′-deoxy-5′′′-(methylamino)-adenosyl]butanamide}], the “Fold-improvement over monovalent control 11” value is listed as 1.6-fold. Moreover, the EC50 under setting [3] was determined as 75 ± 4 nM.

As to `CN(CCCC(=O)NCCNC(=O)CCCN(C)C[C@H]1O[C@@H](n2cnc3c(N)ncnc32)[C@H](O)[C@@H]1O)C[C@H]1O[C@@H](n2cnc3c(N)ncnc32)[C@H](O)[C@@H]1O` [Compound 18a, N,N′-Di-[5′-deoxy-5′-N-methyl-N′-(4-butyryl)-adenosine]-1,2-ethylenediamine], the “Fold-improvement over monovalent control 4” value is listed as 1.4-fold. Under setting [1], the EC50 amounted to 700 ± 50 nM.
